Source: patent US12221494B2, “Short synthetic peptides and their uses for treating retinal degenerative diseases and/or tissue injuries” (MacKay Memorial Hospital, priority 2019, dated 2025)

Assays:
[1] = test system: Sprague-Dawley rats, retinal ischemia/reperfusion (I/R) injury; assay: Retinal vasculature analysis (acellular capillaries) 14 days after I/R injury; assay type: in vivo; conditions: rat
Protocol: (§1) Experimental procedures were approved by the Mackay Memorial Hospital Review Board (Taiwan, R.O.C.). All surgeries were performed under aseptic conditions. Adult 10-week-old male Sprague-Dawley rats (initial body weight=312±11 g) were anesthetized by an intraperitoneal injection of xylazine (10 mg/kg). Peptide was dissolved in 0.85% normal saline to 1 mM and delivered by the subconjunctival injection of 100 μL peptide through a 31-Gneedle with a micro-syringe before the induction of I/R. Normal saline was as a vehicle control. Rat I/R was performed after peptide or vehicle injection for 4 h. Pupils were dilated with 0.5% tropicamide and 0.5% phenylephrine. Body temperature was maintained at 37° C. using a heating blanket After dilation of the pupil, the anterior chamber of the right eye was cannulated with a 27-gauge needle connected to a physiological saline reservoir. The intraocular pressure (IOP) was raised to 110 mmHg by keeping the reservoir at 150 cm above the eye, and retinal ischemia was confirmed by observing whitening of the iris and the loss of the red reflex of the retina. After 90 min of ischemia, the cannulating needle was withdrawn and the IOP was returned to normal pressure, resulting in recovery of the blood supply from the retinal artery and reperfusion injury induced. The reperfusion was evident by the return of the red reflex. Corneal analgesia was achieved using 1 or 2 drops of 0.4% oxybuprocaine hydrochloride, and Ofloxacin ophthalmic gel (0.3%) was applied topically to the eye before and after the procedure. Only the right eye was used in all experiments. A sham procedure was performed at left eye served as an intra-animal control.
Rats (n=6 in each group) were euthanized using an overdose of pentobarbital at 14 days after I/R injury, the eyeballs were fixed with 4% PFA for overnight at 4° C. […] Ten sections per eye were averaged and the mean of six eyes was recorded as the representative value for each group.

[2] = test system: Sprague-Dawley rats, retinal ischemia/reperfusion (I/R) injury; assay: Immunofluorescence staining of retinal microglia/astrocytes 14 days after I/R injury; assay type: in vivo; conditions: rat
Protocol: as §1, with “Only the right eye was used in all experiments. A sham procedure was performed at left eye served as an intra-animal control.” left out
Deparaffinized retinal sections were blocked with 10% goat serum and 5% bovine serum albumin (BSA) in PBS containing 0.5% TritonX-100 (PBST) for 20 min at room temperature for blocking nonspecific staining. […] The slides were then rinsed with PBST three times, mounted with FluorSave™ reagent (Calbiochem) and viewed with an epifluorescence microscope (Zeiss Axioplan 2 imaging; Zeiss, Oberkochen, Germany) Three sections per eye were averaged and the mean of six eyes was recorded as the representative value for each group.

TNF-α mRNA = assay: Hyperosmotic stress-induced TNF-α gene expression in rabbit corneal epithelial cells (qPCR); assay type: cell-based; conditions: 20 μM peptide 6 h, then hyperosmotic medium (463 mOsM) 3 h, solvent 12.8-fold
Protocol: (§2) Total RNA was extracted from cells using TRIzol (Invitrogen). Synthesis of cDNA was performed with 1 μg of total RNA at 50° C. for 50 min using oligo(dT) primers and reverse transcriptase (Superscript III; Invitrogen). Briefly, quantification of cDNA was performed in the LightCycler (Roche, Mannheim, Germany) using the DNA Master SYBR Green I kit (Roche) with the following cycling conditions: initial denaturation at 95° C. for 10 min, followed by 40 cycles at 95° C. for 10 s, 60° C. for 10 s, and 72° C. for 10 s and a 5-min terminal incubation at 72° C. The data were calculated with AACt. The expression was then normalized against the expression of glyceraldehyde-3-phosphate dehydrogenase (GAPDH). The PCR primers were mouse Survivin sense, 5′-[…]-3′ (SEQ ID NO: 27), anti-sense, 5′-[…]-3′ (SEQ ID NO: 28) (accession number: NM_001012273.1; PCR product: 136 bp); mouse GAPDH sense, 5′-[…]-3′ (SEQ ID NO: 29), anti-sense, 5′-[…]-3′ (SEQ ID NO: 30) (NM_001289726.1; 149 bp). For analysis rabbit inflammatory gene expression, The PCR primers were rabbit TNF-αsense, 5′-[…]-3′ (SEQ ID NO: 31), anti-sense, 5′-[…]-3′ (SEQ ID NO: 32) (accession number: NM 001082263.1); rabbit IL-1βsense, 5′-[…]-3′(SEQ ID NO: 33), anti-sense, 5′-[…]-3′ (SEQ ID NO: 34) (NM 001082201.1); rabbit GAPDH sense, 5′-[…]-3′ (SEQ ID NO: 35), anti-sense, 5′-[…]-3′ (SEQ ID NO: 36) (accession number:NM 001082253.1). The cycle threshold (Ct) values of the PCR product and a GAPDH (Glyceraldehyde 3-phosphate dehydrogenase) control mRNA were used to calculate relative quantities of mRNA.
(§3) Limbal stem epithelial cells (LSEC) were isolated from 6-month-old New Zealand white rabbits and continuously cultivated for 14 days byDMEM/F-12basalmedium based cell-suspension culture to achieve corneal-liked epithelial cell differentiation as previously described (Ho et al., Stem Cells. 2013; 31:1775). […] After 3 h, quantitative real-time PCR was used to estimate HOP-induced Tumor necrosis factor (TNF)-α and nterleukin-1 beta (IL-1β) expressions. […]

IL-1β mRNA = assay: Hyperosmotic stress-induced IL-1β gene expression in rabbit corneal epithelial cells (qPCR); assay type: cell-based; conditions: 20 μM peptide 6 h, then hyperosmotic medium (463 mOsM) 3 h, solvent 4.5-fold
Protocol: as §2, §3

## NH2-(D-Ser)-Leu-Gly-Ala-Glu-Gln-COOH (SLGAEQ; HELM PEPTIDE1{[dS].L.G.A.E.Q}$$$$V2.0; SMILES CC(C)C[C@H](NC(=O)[C@H](N)CO)C(=O)NCC(=O)N[C@@H](C)C(=O)N[C@@H](CCC(=O)O)C(=O)N[C@@H](CCC(N)=O)C(=O)O) [6-mer dS]
[1]; 14 days after I/R injury
  number of degenerate capillaries, in words: The number of degenerate capillaries was reduced
[1]; 14 days post-ischemia, Vehicle + I/R 7.2 ± 0.9
  Number of acellilar capillaries: 2.3 ± 0.7 /mm^2
[1]; sham testing in contralateral eye
  cytotoxic effect on retinal vasculature: had no cytotoxic effect on retinal vasculature
[2]
  activation of Iba-1-positive microglial cells and GFAP-positive astrocytes, in words: less prominent
[2]; Control 3.3 ± 1.2, Vehicle + I/R 24.7 ± 1.6
  Iba-1-positive Microglia: 5.8 ± 1.0 /400 × field
[2]; Control 6.9 ± 2.0, Vehicle + I/R 28.6 ± 2.2
  GFAP-positive astrocytes: 10.3 ± 1.8 /400 × field
TNF-α mRNA
  mRNA expression of TNF-α, in words: apparently repressed the mRNA expression of TNF-α and IL-1β
IL-1β mRNA
  mRNA expression of IL-1β, in words: apparently repressed the mRNA expression of TNF-α and IL-1β
